Measured values reported in a melting point compilation (Tetko et al.; mined from patent text by program, amines drawn as free bases though some values may be those of a salt).

Compound	melting point
O=C1Nc2ccc(F)cc2C1c1ncnc2nn(C3CCCCC3)cc12 (configuration not stated)	294 to 298 °C
NC(=O)[C@@H]1[C@H](Nc2c(Br)cnc3[nH]c(-c4cccnc4N4CCCC4)nc23)[C@H]2C=C[C@@H]1C2	190 °C
O=C1CCC(N2Cc3cc(CNC(=O)c4ccccc4C(F)(F)F)ccc3C2=O)C(=O)N1 (configuration not stated)	303 to 305 °C
COc1ccc(-c2cc(C)c(N)c(C=O)c2)cn1	81 to 84 °C
CC1C(C)(C)c2ccc(O)cc2C1(C)C (configuration not stated)	149 °C
CCN(CC)CCCN1C(=O)NC(Cc2c[nH]c3ccc(OC)cc23)C1=O (configuration not stated)	136 °C
CC1(C)OC(=C(C#N)C#N)C(C#N)=C1C=Cc1cc2c3c(c1)CCCN3CCC2	243 °C
ICCCCCCc1ccc(-c2ccccc2)cc1	77 to 77.5 °C
CN1CCN(c2c(-c3ccccc3)sc3ccccc23)CC1	118 to 120 °C
COc1ccc(C2=NN(Cc3cccc(C(=O)O)c3)C(=O)[C@H]3CCCC[C@@H]23)cc1OC (relative stereo)	133 to 136 °C
CCCCC(=O)N(Cc1ccc(OC)cc1)c1cc(F)cc(-c2nnn[nH]2)c1	122 to 125 °C
CC(C)(SCc1ccccc1)[C@@H]1C[C@H](CSCc2ccccc2)C(=O)N1CC(=O)O (relative stereo)	117 to 118 °C
CCc1cccc(Nc2ncnc3cc(OCc4ccccc4)c(OCCOC)cc23)c1	156 to 157 °C
N#CCCCOc1ccc(C(=O)O)cc1	193 to 194 °C
CCCCc1nc2c(N)nc(C)c(C)c2n1CCOc1ccccc1	130 to 132 °C
CC(C)(C)NS(=O)(=O)c1c(S)cccc1C(F)(F)F	139 °C
CCOC(=O)c1cn(Cc2c(F)cccc2F)c2cc(Br)c(CBr)cc2c1=O	184 to 187 °C
O=C(OCC(F)(F)F)c1ncn2c1CN=C(c1ccccc1F)c1cc(Br)ccc1-2	223 to 224 °C
CCn1c(Cl)c(C=NO)c(=O)n(CC)c1=O	92 to 94 °C
C=C1N(S(=O)(=O)c2ccc(C)cc2)C(=O)OC12CCN(Cc1ccccc1)CC2	157 to 158 °C
CCOC(=O)c1cn(-c2ccc(F)cc2)c2cc(-c3cc(C)no3)ccc2c1=O	214 to 216 °C
CC(=O)OC1CCC2(C)C(=CC=C3C2CCC2(C)C(C(C)CC#CC(C)(C)OC(C)=O)=CCC32)C1 (configuration not stated)	98 to 101 °C
CCOP(C)(=O)c1cc(Cl)ccc1Cl (configuration not stated)	90 to 91 °C
Nc1nc(O)c2c(n1)NCC(CCc1ccc(C(=O)N[C@@H](CCC(=O)O)C(=O)O)cc1)C2 (some centres not stated)	> 250 °C
O=C1c2c(cc(O)c(Cl)c2Cl)CC1(c1ccccc1)c1ccccc1	207 to 213 °C
COC(=O)c1ccc(OCCNC(=O)c2ccc(Cl)cc2)cc1	125 to 127 °C

Compound	melting point
COc1ccnc(CS(=O)c2nc3cc(Cl)c(Cl)cc3[nH]2)c1C (configuration not stated)	173 °C
CC(C)C(=O)c1cc(O)c(O)c([N+](=O)[O-])c1	98 to 99 °C
N#Cc1cc(Br)c(I)c(Br)c1	170 to 175 °C
C=CCC1NC(=O)C1C(C)(C)O (configuration not stated)	144 °C
COC(=O)c1ccc(C2=N[C@H]3CCCC[C@H]3c3cc(OC)c(OC)cc32)cc1 (racemic)	122 °C
COC(=O)CCCCCCCCN1C(=O)C(c2ccccc2)N(c2ccccc2)C1=O (configuration not stated)	69 to 72 °C
FC(F)(F)c1nnc2c3cc(Cl)ccc3ccn12	228 °C
CC12CCC3c4ccc(C(=O)O)cc4CCC3C1CCC2C(=O)c1cccc2ccccc12 (configuration not stated)	228 °C
COC(=O)C(Oc1cc(OCc2ccnnc2)ccc1C#N)c1ccccc1Cl (racemic)	136 to 138 °C
CSc1cc(Oc2cccc(C(F)(F)F)c2)nc(C(=O)Nc2ccccc2)c1	115 to 119 °C
NS(=O)(=O)c1ccc(NC(=O)NC23CC4CC(CC(C4)C2)C3)cc1	270 to 275 °C
Cc1c(C(F)(F)F)noc1N	53 to 54 °C
CC(C)c1nc(-c2ncn3c2[C@@H]2CCCN2C(=O)c2c(Cl)cccc2-3)no1	195 to 196 °C
CCc1cc(C#N)c(=O)[nH]c1COCc1ccccc1	141 to 143 °C
Clc1ccc(Oc2c(-c3ccco3)sc3cnccc23)cc1	75 to 77 °C
O=C(NCc1ccc2cc(O)ccc2c1)c1cc(-c2ccc(Cl)cc2)oc1C(F)(F)F	189 to 191 °C
Cc1oc2nc3c(c(NC(=O)C(C)C)c2c1C)CCCC3	245 to 246 °C
Clc1ccc(N=c2ssnc2Cl)cc1Cl	89 to 90 °C
NC(=O)c1ccc(-c2ccc(-c3ccn(C(CC(=O)O)C(=O)NC(CO)Cc4ccccc4)c3)cc2)cc1 (configuration not stated)	218 to 220 °C
COc1c(S(=O)C(F)(F)F)c(C#N)nn1-c1c(Cl)cc(C(F)(F)F)cc1Cl (configuration not stated)	136 to 137 °C
COC1(C(=O)O)C=CC(OCc2ccccc2)=CC1 (configuration not stated)	172 to 173 °C
CCCc1c(-c2cc(=O)c3c(O)cc(OCC(=O)OCC)cc3o2)ccc(OC)c1O	138 °C
O=C1CCCc2c(-c3ccccc3)[nH]c(-c3ccncc3)c21	254 to 255 °C
O=C1c2ccccc2CN1CCCSc1ccncc1	73 to 74.5 °C
CC(C(=O)N(C)C)n1cc(-c2ccccc2)c(-c2ccccc2)n1 (configuration not stated)	122 to 124 °C
O=C(c1ccc([N+](=O)[O-])cc1)N1Cc2ccc(C(=O)C(F)(F)F)n2Cc2ccccc21	169 to 170 °C

Compound	melting point
CC(C)(C)OC(=O)NCCC[C@H](NC(=O)OC(C)(C)C)C(=O)NCCCC(c1ccc(F)cc1)c1ccc(F)cc1	54 to 59 °C
COC(=O)C(=O)c1c(F)c(F)c(OCCOc2ccc3ccccc3c2)c(F)c1F	69 to 71 °C
CC(C#CC1=C(C)C(O)C(O)C1(C)C)=CCO (configuration not stated)	121 to 122 °C
Cc1ccc(S(=O)(=O)n2c(CCCC(=O)O)cc3nc(Cl)ccc32)c(Cl)c1	168 to 169 °C
CCOC(=O)Cc1cc(O)ccc1CCc1cc2cc(C#N)ccc2o1	84 to 86 °C
CN1C(=O)N(c2ccc([N+](=O)[O-])c(C(F)(F)F)c2)C(=O)C1(C)CF (configuration not stated)	118 to 119 °C
CCOC(=O)C(=NO)c1ccccc1[N+](=O)[O-]	167 to 168 °C
CCCCCCCOC(=O)Oc1ccncc1	44 to 50 °C
Cc1c(CCc2ccc3[nH]c(N)nc3c2)ncn1C(c1ccccc1)(c1ccccc1)c1ccccc1	161 to 164 °C
CCCCCCCCC=CCCCCCCCCCCCC(=O)NC	48 to 49 °C
O=[N+]([O-])c1ccc(OCCCl)cc1	60 °C
CCN(CCO)CC(C)N1c2ccccc2Sc2ccc(C(=S)NCc3ccccc3)cc21 (racemic)	154 °C
CCCCc1nc2cccc(CO)c2n1Cc1ccc(-c2ccccc2C#N)cc1	203 to 204 °C
COc1ccc(Nc2c(C#N)cnc3cc(OC)c(OC)cc23)cc1OC	230 to 240 °C
COc1ccc(C(=O)Nc2c(Cl)cncc2Cl)c2c1oc1ccc(Cl)cc12	> 250 °C
Cc1nn(-c2ccccc2)c2[nH]c(=O)c3ccccc3c12	302 to 304 °C
COc1cccc(OC(=O)N2CCCC2=O)c1	45 to 47 °C
CCCN(CCC)CCCOc1ccc(-c2noc(-c3ccccc3)n2)cc1	55 to 57 °C
COc1c(F)c(F)c(C(=O)c2c(F)c(F)c(F)c(F)c2F)c(OC)c1F	49 to 50 °C
COc1cccc(NS(=O)(=O)c2ccc(NC3=C(Cl)C(=O)c4ccccc4C3=O)cc2)c1	213 to 216 °C
CC(C)c1[nH]n(-c2c(Cl)cc(Cl)cc2Cl)c2nc(Cc3ccc(N=C=O)cc3)nc(=O)c1-2	233 to 235 °C
O=C(CS)N[C@@H](CS)C(=O)O	121 °C
COc1ccc(C(C)=NOCc2ccc([N+](=O)[O-])cc2)cc1F	67 to 68 °C
Fc1ccc(CN2CC=C(c3cc4ccccc4s3)CC2)cc1	142 to 144 °C
COc1ccc2c(c1)c1c(n2CCBr)C(=O)CCC1	119 °C
CCCC[Si](C)(C)CCSCCNC(=O)n1cc(F)c(=O)[nH]c1=O	71 to 72 °C

Compound	melting point
CC(C)(C)OC(=O)N[C@@H](CC1CCCCC1)[C@@H]1CO1	58 to 59.5 °C
Cc1nn(C)c2c(-c3ccc(OC(F)(F)F)cc3)nc(-c3ccc(F)cc3)nc12	170 to 172 °C
Cc1cc(C)c(C(=O)C(F)(F)F)[nH]1	80 °C
Fc1cc2c(c(-c3c(Cl)cccc3Cl)c1)OC(CNC1CCC1)C2 (configuration not stated)	128 to 130 °C
CC(=O)c1ccc2c(c1)Cc1ccccc1O2	103 to 104 °C
BrCCCc1ccc(C=Cc2cc3ccccc3s2)s1	109 to 111 °C
CNC(=O)N(C)c1cc(C)on1	77 to 78 °C
COc1ccc(C=CC(C)=O)cc1OC	78 to 80 °C
CC12CCC3C(CC=C4CC(O)CCC43C)C1=CCC2=O (configuration not stated)	161 to 164 °C
CCCCCCCCOc1ccc(CP(=O)(OC)OC)c2c(CP(=O)(OC)OC)cccc12	51 to 52 °C
O=[N+]([O-])c1ccc2nc(-c3ccccc3)oc2n1	219 to 220 °C
COC(=O)c1ccc(/C=C\[C@@H]2C[C@@H](NS(=O)(=O)c3ccc(Cl)cc3)CN2)cc1	189 to 190 °C
O=C1CCCC(=O)C1C(=O)c1ccccc1[N+](=O)[O-]	132 to 135 °C
COC(=O)c1cnn2c(C(F)(F)F)cc(Cl)nc12	126 to 127 °C
Cn1nc(C(=O)C(=O)c2ccccc2)ccc1=O	89 to 92 °C
OC1CC(O)C2CC1NN2 (configuration not stated)	203 to 205 °C
COc1c2c(cc3ccc(=O)oc13)CC(O)O2 (configuration not stated)	135 to 137 °C
CNC1=NS(=O)N=C1NCCCNc1ncc(Br)cc1C (configuration not stated)	211 to 212 °C
CCOC(=O)C(=CNN(C)C)C(=O)c1cc(F)c(F)c(F)c1F	81 °C
CCOC(=O)C(CC)Oc1ccc2c(-c3ccc(Cl)cc3)noc2c1 (configuration not stated)	73 °C
O=C(O)c1cc(CCNS(=O)(=O)c2ccccc2)c2cccccc1-2	193 to 195 °C
Cn1cc2c([C@H]3C[C@H]3CN)cccc2n1 (relative stereo)	155 to 156 °C
OCC(O)COc1ccccc1OCc1ccccc1 (configuration not stated)	81 to 82.5 °C
CC1(C)OOC23CCCCC2CC(=O)OC3O1 (configuration not stated)	106 to 107 °C
